Assay: Assay 1. Stability in Simulated Gastric Fluid (SGF)
Assay type: in vitro ADME
Details: 1 μM, 37° C., SGF pH 1.6 with pepsin
Experimental: Assay 1. Stability of acylated active agents in Simulated Gastric Fluid (SGF). This assay was used to assess the stability of an acylated active agent in a stomach.
Medium was prepared by dissolving 2 g of sodium chloride in 0.6 L of ultrapure water (MilliQ®, Millipore Sigma, Darmstadt, Germany). The pH was adjusted to 1.6 with 1N hydrochloric acid, and the volume was then adjusted to 1 L with purified water.
60 mg FaSSIF powder (Biorelevant™, London, UK) were dissolved in 500 mL buffer (above). Pepsin was added (0.1 mg/mL) (Millipore Sigma, Darmstadt, Germany), and the solution was stirred. The resulting SGF media were used fresh for each experiment.
Test compounds were dissolved in DMSO stock to 1 mM. An aliquot of the DMSO stock solution was removed and diluted in the SGF Media in 15 mL falcon tubes to generate a compound concentration of 1 μM. A 1 mL aliquot was immediately removed and diluted once with 1 volume of acetonitrile for T0 timepoint. The mixture was sealed and mixed at 37° C. in an incubator. Aliquots (1 mL) were removed at regular intervals and immediately quenched by the addition of 1 volume of acetonitrile. The resulting samples were analyzed by LC/MS to determine degradation rates in SGF.

| Structure (SMILES) | Assay 1 (SGF) (% Remaining @ 1 hours) |
| --- | --- |
| CCCC(=O)Oc1ccc(/C=C/c2cc(OC(=O)CCC)cc(OC(=O)CCC)c2)cc1 [Compound 1, [4-[(E)-2-[3,5-di(butanoyloxy)phenyl]vinyl]phenyl] butanoate] | C (C: >75% of the tested compound remaining) |
| CCCCCCCC(=O)Oc1ccc(/C=C/c2cc(OC(=O)CCCCCCC)cc(OC(=O)CCCCCCC)c2)cc1 [Compound 11, [4-[(E)-2-[3,5-di(octanoyloxy)phenyl]vinyl]phenyl] octanoate] | C (C: >75% of the tested compound remaining) |
| CCCCCCCCCC(=O)Oc1ccc(/C=C/c2cc(OC(=O)CCCCCCCCC)cc(OC(=O)CCCCCCCCC)c2)cc1 [Compound 12, [4-[(E)-2-[3,5-di(decanoyloxy)phenyl]vinyl]phenyl] decanoate] | C (C: >75% of the tested compound remaining) |
| CCCC(=O)O[C@H](C)CC(=O)Oc1ccc(/C=C/c2cc(OC(=O)C[C@@H](C)OC(=O)CCC)cc(OC(=O)C[C@@H](C)OC(=O)CCC)c2)cc1 [Compound 13, [4-[(E)-2-[3,5-bis[[(3R)-3-butanoyloxybutanoyl]oxy]phenyl]vinyl]phenyl] (3R)-3-butanoyloxy-butanoate] | C (C: >75% of the tested compound remaining) |
| CC(=O)Oc1ccc(/C=C/c2cc(OC(C)=O)cc(OC(C)=O)c2)cc1 [Compound 18, [4-[(E)-2-(3,5-diacetoxyphenyl)vinyl]phenyl] acetate] | C (C: >75% of the tested compound remaining) |
| CCCC(=O)OC[C@@H](OC(=O)CCC)[C@@H](OC(=O)CCC)[C@H](OC(=O)CCC)[C@@H](OC(=O)CCC)C(=O)Oc1ccc(/C=C/c2cc(OC(=O)[C@H](OC(=O)CCC)[C@@H](OC(=O)CCC)[C@H](OC(=O)CCC)[C@@H](COC(=O)CCC)OC(=O)CCC)cc(OC(=O)[C@H](OC(=O)CCC)[C@@H](OC(=O)CCC)[C@H](OC(=O)CCC)[C@@H](COC(=O)CCC)OC(=O)CCC)c2)cc1 [Compound 19, [4-[(E)-2-[3,5-bis[[(2R,3S,4R,5R)-2,3,4,5,6-penta(butanoyloxy)hexanoyl]oxy]phenyl]vinyl]phenyl] (2R,3S,4R,5R)-2,3,4,5,6-penta(butanoyloxy)hexanoate] | B (B: 25-75% of the tested compound remaining) |
| CCC(=O)O[C@@H]1[C@@H](OC(=O)CC)[C@@H](OC(=O)CCc2c[nH]c3ccccc23)OC[C@H]1OC(=O)CC [Compound 108, (2R,3R,4S,5R)-3,4,5-tris(propanoyloxy)oxan-2-yl 3-(1H-indol-3-yl)propanoate] | C (C: >75% of the tested compound remaining) |
| CCC(=O)O[C@H]1[C@H](OC(=O)CC)[C@H](OC(=O)/C=C/c2c[nH]c3ccccc23)O[C@@H](C)[C@H]1OC(=O)CC [Compound 148, (2S,3S,4R,5R,6S)-6-methyl-3,4,5-tris(propanoyloxy)oxan-2-yl (2E)-3-(1H-indol-3-yl)prop-2-enoate] | C (C: >75% of the tested compound remaining) |
| CCC(=O)O[C@@H]1OC[C@H](OC(=O)CC)[C@H](OC(=O)CC)[C@H]1OC(=O)CC [Compound 160, (2S,3R,4S,5S)-3,4,5-tris(propanoyloxy)oxan-2-yl Propanoate] | C (C: >75% of the tested compound remaining) |
| CCCC(=O)OCC1(OC(=O)CCC)OC[C@@H](OC(=O)CCC)[C@H](OC(=O)CCC)[C@@H]1OC(=O)CCC (stereo partly drawn) [Compound 163, [(3S,4S,5R)-2,3,4,5-tetrakis(butanoyloxy)oxan-2-yl]methyl Butanoate] | C (C: >75% of the tested compound remaining) |
| C[C@@H]1CCO[C@H](C(=O)Oc2ccc(/C=C/c3cc(O)cc(OC(=O)[C@H]4OCC[C@@H](C)O4)c3)cc2)O1 [Compound 256, 4-[(1E)-2-{3-hydroxy-5-[(2S,4R)-4-methyl-1,3-dioxane-2-carbonyloxy]phenyl}ethenyl]phenyl (2S,4R)-4-methyl-1,3-dioxane-2-carboxylate] | A (A: <25% of the tested compound remaining) |
| C[C@@H]1CCOC(C(=O)Oc2ccc(/C=C/c3cc(OC(=O)C4OCC[C@@H](C)O4)cc(OC(=O)C4OCC[C@@H](C)O4)c3)cc2)O1 (stereo partly drawn) [Compound 258, 3-[(4R)-4-methyl-1,3-dioxane-2-carbonyloxy]-5-[(1E)-2-{4-[(4R)-4-methyl-1,3-dioxane-2-carbonyloxy]phenyl}ethenyl]phenyl (4R)-4-methyl-1,3-dioxane-2-carboxylate] | A (A: <25% of the tested compound remaining) |

Assay: Assay 2. Stability in Simulated Intestinal Fluid (SIF)
Assay type: in vitro ADME
Details: 1 μM, 37° C., SIF pH 6.7 with pancreatin
Experimental: Assay 2. Stability of acylated active agents in Simulated Intestinal Fluid (SIF). This assay was used to assess the stability of an acylated active agent in a small intestine.
Phosphate buffer was prepared by dissolving 0.42 g of sodium hydroxide pellets and 3.95 g of monobasic sodium phosphate monohydrate and 6.19 g of sodium chloride in ultrapure water (MilliQ®, Millipore Sigma, Darmstadt, Germany). The pH was adjusted to 6.7 using aq. HCl and aq. NaOH, as necessary, and the solution was diluted with ultrapure water to produce 1 L of the pH 6.7 buffer.
112 mg FaSSIF powder (Biorelevant™, London, UK) was dissolved in 50 mL of the pH 6.7 buffer. 2 to 3 mL of the resulting solution were then added to 500 mg pancreatin (Millipore Sigma, Darmstadt, Germany). The resulting mixture was agitated by finger tapping the vessel containing the mixture until milky suspension formed. At this time, the remainder of the 50 mL FaSSiF/pH 6.7 buffer solution was added. The resulting suspension was flipped upside down 10 times to produce SIF, which was used fresh.
Test compounds were dissolved in DMSO stock to 1 mM. An aliquot of the DMSO stock solution was removed and diluted in the SIF media in 15 mL falcon tubes to produce a mixture with a tested compound concentration of 1 μM. A 1 mL aliquot was immediately removed and diluted once with 1 volume of acetonitrile for T0 timepoint. The mixture was sealed and agitated at 37° C. in an incubator. Aliquots (1 mL) were removed at regular intervals and immediately quenched by the addition of 1 volume of acetonitrile. The resulting samples were analyzed by LC/MS to determine degradation rates.

| Structure (SMILES) | Assay 2 (SIF) (% @ Remaining 4 hours) |
| --- | --- |
| CCCC(=O)Oc1ccc(/C=C/c2cc(OC(=O)CCC)cc(OC(=O)CCC)c2)cc1 [Compound 1, [4-[(E)-2-[3,5-di(butanoyloxy)phenyl]vinyl]phenyl] butanoate] | B (B: 25-75% of the tested compound remaining) |
| O=C(CCCc1ccccc1)Oc1ccc(/C=C/c2cc(OC(=O)CCCc3ccccc3)cc(OC(=O)CCCc3ccccc3)c2)cc1 [Compound 2, [4-[(E)-2-[3,5-bis(4-phenylbutanoyloxy)phenyl]vinyl]phenyl] 4-phenylbutanoate] | C (C: >75% of the tested compound remaining) |
| CCCC(=O)O[C@H](C)CC(=O)Oc1ccc(/C=C/c2cc(OC(=O)C[C@@H](C)OC(=O)CCC)cc(OC(=O)C[C@@H](C)OC(=O)CCC)c2)cc1 [Compound 13, [4-[(E)-2-[3,5-bis[[(3R)-3-butanoyloxybutanoyl]oxy]phenyl]vinyl]phenyl] (3R)-3-butanoyloxy-butanoate] | B (B: 25-75% of the tested compound remaining) |
| CC(=O)Oc1ccc(/C=C/c2cc(OC(C)=O)cc(OC(C)=O)c2)cc1 [Compound 18, [4-[(E)-2-(3,5-diacetoxyphenyl)vinyl]phenyl] acetate] | C (C: >75% of the tested compound remaining) |
| CCCC(=O)OC[C@@H](OC(=O)CCC)[C@@H](OC(=O)CCC)[C@H](OC(=O)CCC)[C@@H](OC(=O)CCC)C(=O)Oc1ccc(/C=C/c2cc(OC(=O)[C@H](OC(=O)CCC)[C@@H](OC(=O)CCC)[C@H](OC(=O)CCC)[C@@H](COC(=O)CCC)OC(=O)CCC)cc(OC(=O)[C@H](OC(=O)CCC)[C@@H](OC(=O)CCC)[C@H](OC(=O)CCC)[C@@H](COC(=O)CCC)OC(=O)CCC)c2)cc1 [Compound 19, [4-[(E)-2-[3,5-bis[[(2R,3S,4R,5R)-2,3,4,5,6-penta(butanoyloxy)hexanoyl]oxy]phenyl]vinyl]phenyl] (2R,3S,4R,5R)-2,3,4,5,6-penta(butanoyloxy)hexanoate] | B (B: 25-75% of the tested compound remaining) |
| CCCC(=O)O[C@@H]1[C@@H](OC(=O)CCC)[C@@H](Oc2ccc(N)cc2C(=O)O)OC[C@@H]1OC(=O)CCC [Compound 42, 5-amino-2-[(2R,3R,4S,5S)-3,4,5-tri(butanoyloxy)tetrahydropyran-2-yl]oxy-benzoic Acid] | C (C: >75% of the tested compound remaining) |
| CCCC(=O)O[C@H]1O[C@@H](C)[C@H](OC(=O)CCC)[C@@H](OC(=O)CCC)[C@H]1OC(=O)CCC [Compound 151, (2R,3R,4R,5S,6S)-3,4,5-tris(butanoyloxy)-6-methyloxan-2-yl Butanoate] | A (A: <25% of the tested compound remaining) |
| CCCC(=O)O[C@@H]1O[C@@H](C)[C@H](OC(=O)CCC)[C@@H](OC(=O)CCC)[C@H]1OC(=O)CCC [Compound 152, (2S,3R,4R,5S,6S)-3,4,5-tris(butanoyloxy)-6-methyloxan-2-yl Butanoate] | A (A: <25% of the tested compound remaining) |
| C[C@@H]1O[C@H](OC(=O)Cc2c[nH]c3ccccc23)[C@H](OC(=O)Cc2c[nH]c3ccccc23)[C@H](OC(=O)Cc2c[nH]c3ccccc23)[C@H]1OC(=O)Cc1c[nH]c2ccccc12 [Compound 153, (2R,3R,4R,5S,6S)-3,4,5-tris({[2-(1H-indol-3-yl)acetyl]oxy})-6-methyloxan-2-yl 2-(1H-indol-3-yl)acetate] | A (A: <25% of the tested compound remaining) |
| C[C@@H]1O[C@@H](OC(=O)Cc2c[nH]c3ccccc23)[C@H](OC(=O)Cc2c[nH]c3ccccc23)[C@H](OC(=O)Cc2c[nH]c3ccccc23)[C@H]1OC(=O)Cc1c[nH]c2ccccc12 [Compound 154, (2S,3R,4R,5S,6S)-3,4,5-tris({[2-(1H-indol-3-yl)acetyl]oxy})-6-methyloxan-2-yl 2-(1H-indol-3-yl)acetate] | A (A: <25% of the tested compound remaining) |
| O=C(Cc1c[nH]c2ccccc12)O[C@@H]1OC[C@@H](OC(=O)Cc2c[nH]c3ccccc23)[C@@H](OC(=O)Cc2c[nH]c3ccccc23)[C@H]1OC(=O)Cc1c[nH]c2ccccc12 [Compound 172, (2S,3R,4R,5R)-3,4,5-tris({[2-(1H-indol-3-yl)acetyl]oxy})oxan-2-yl 2-(1H-indol-3-yl)acetate] | C (C: >75% of the tested compound remaining) |
| CCCC(=O)O[C@H]1OC[C@@H](OC(=O)CCC)[C@H](OC(=O)CCC)[C@H]1OC(=O)CCC [Compound 191, (2R,3R,4S,5R)-3,4,5-tris(butanoyloxy)oxan-2-yl Butanoate] | C (C: >75% of the tested compound remaining) |
| CCCC(=O)O[C@@H]1[C@@H](OC(=O)CCC)[C@@H](Oc2ccc(N)cc2C(=O)O)OC[C@H]1OC(=O)CCC [Compound 204, 5-amino-2-[(2R,3R,4S,5R)-3,4,5-tri(butanoyloxy)tetrahydropyran-2-yl]oxy-benzoic Acid] | B (B: 25-75% of the tested compound remaining) |
| CCCC(=O)Nc1ccc(O[C@@H]2OC[C@@H](OC(=O)CCC)[C@H](OC(=O)CCC)[C@H]2OC(=O)CCC)c(C(=O)O)c1 [Compound 229, 5-butanamido-2-{[(2S,3R,4S,5R)-3,4,5-tris(butanoyloxy)oxan-2-yl]oxy}benzoic Acid] | A (A: <25% of the tested compound remaining) |

Source: patent US10953027B2, “Active agents and methods of their use for the treatment of metabolic disorders and nonalcoholic fatty liver disease” (Flagship Pioneering Innovations V, Inc., priority 2018, dated 2021)
